According to patent US20240317683A1, “METHODS OF TREATING MOOD DISORDERS” (priority 2020, published 2024):
Counter-ions that a name gives are not always drawn.

Assays:
CYP3A4 = CYP3A4 (Homo sapiens (Human), UniProt P08684); assay: CYP inhibition in human liver microsomes, CYP3A4; format: in vitro ADME; conditions: for inhibition at 10 min, 10 µM: both sexes, human, pooled human liver microsomes, pH 7.4, probe midazolam (2 μM), HLM, midazolam substrate, read-out: CYP 3A4 % Inhibition at 10 μM
[1] = Pharmacokinetics in rats, brain; format: in vivo, Sprague Dawley rats; conditions: rat brain, SC; for Cmax / Tmax / half-life: male, Sprague Dawley
Method: Animals. Male Sprague Dawley rats, aged 8-12 weeks, were used in these studies. Four rats were housed in each cage. Temperature and humidity were maintained at 22±3° C. and 30-70%, respectively, and illumination was controlled to give a 12 h light and 12 h dark cycle. Temperature and humidity were recorded by an auto-controlled data logger system. All animals were provided laboratory rodent diet and were fasted for 4 h pre-dose and 2 h post-dose. Reverse osmosis water treated with ultraviolet light was provided ad libitum. Animals were randomly assigned to treatment groups.
Drugs. Compounds 4 and 5 were prepared as described above. Compound 6 was commercially obtained. Test compounds were used as the hydrogen fumarate (6) or hydrochloride (4 and 5) salts and were dissolved in a vehicle consisting of normal saline. They were then administered subcutaneously (SC) at a dose of 1 or 10 mg/kg (calculated based on the free base) and at a volume of 5 mL/kg body weight.
Sample Collection and Bioanalysis. Blood samples (approximately 120 μL) were collected under light isoflurane anesthesia (Surgivet®) from the retro orbital plexus at 0.08, 0.25, 0.5, 1, 2, 4, 8, and 24 h (4 animals per time point). Immediately after blood collection, plasma was harvested by centrifugation at 4,000 rpm for 10 min at 4° C. and samples were stored at −70±10° C. until bioanalysis. Following blood collection, animals were immediately sacrificed, the abdominal vena-cava was cut open, and the whole body was perfused from the heart using 10 mL of normal saline, and brain samples were collected from all animals. After isolation, brain samples were rinsed three times in ice-cold normal saline (for 5-10 seconds/rinse using ˜5-10 mL normal saline in disposable petri dish for each rinse) and dried on blotting paper. Brain samples were homogenized using ice-cold phosphate-buffered saline (pH 7.4). Total homogenate volume was three times the tissue weight. All homogenates were stored at −70±10° C. until bioanalysis. For bioanalysis, 25 μL aliquots of plasma/brain study samples or spiked plasma/brain calibration standards were added to individual pre-labeled micro-centrifuge tubes followed by 100 μL of an internal standard solution (glipizide, 500 ng/ml in acetonitrile) except for blanks, where 100 μL of acetonitrile was added. Samples were vortexed for 5 minutes and then centrifuged for 10 minutes at 4,000 rpm at 4° C. Following centrifugation, 100 μL of each clear supernatant was transferred to a 96 well plate and analyzed with a fit-for-purpose LC-MS/MS method, with authentic samples of each analyte used for calibration and identification.
Data Analysis. Pharmacokinetic parameters were estimated using the non-compartmental analysis tool of Phoenix® WinNonlin software (Ver 8.0).

C57BL/6 mice = assay: Head twitch response (HTR) in mice; format: in vivo; conditions: for Average HTR: 20 mins; for maximal effect in HTR: SC, maximal over tested doses
Method: Animals. Adult male C57BL/6 mice, aged 8 weeks (body weight 20-25 g) were used in these experiments. Animals were housed under controlled temperatures and 12-hour light/dark cycles (lights on between 07:00-19:00 h), with ad libitum food and water. The protocol was approved by the Eurofins Advinus Institutional Animal Care and Use Committee. This study was carried out in strict accordance with the recommendations in the Guide for the Care and Use of Laboratory Animals of the National Institutes of Health. All efforts were made to minimize suffering.
Drugs and Drug administration. Compounds 3 and 4 were prepared as described above. All other compounds were commercially obtained. Test compounds were used as the hydrogen fumarate (1 and 2) or hydrochloride (DOI, 3, and 4) salts. Drugs were dissolved in a vehicle consisting of normal saline and administered subcutaneously (SC) in a volume of 10 ml/kg. Test compounds were administered at 5 doses per compound (0.1 to 100 mg/kg, as indicated, calculated based on the free base) using N=6 animals/group. […] For blockade experiments, MDL100907 (0.1 mg/kg, SC) was administered 10 mins prior to the test compound.
Procedure. Mice were administered one dose of a test drug (or vehicle) s.c. and immediately placed into a small open field for behavioral observation. Animals were observed continuously for 20 mins and the number of HTRs were counted by an observer blind to the treatment condition.
Statistical analysis. The data points shown in Table 11 are the mean ±standard error of the mean (SEM). Analysis was performed using GraphPad Prism 9.

rat synaptosomes = assay: Synaptosome 5-HT release assay; format: biochemical, Sprague-Dawley rats; conditions: for EC50: [3H]5-HT
Method: Synaptosome 5-HT Release Assay. Synaptosome release assays were conducted according to modifications of previously described procedures (Partilla et al. (2016). Interrogating the Activity of Ligands at Monoamine Transporters in Rat Brain Synaptosomes. In Neurotransmitter Transporters (pp. 41-52). Springer.). Briefly, synaptosomes were prepared from rat brains. Male Sprague-Dawley rats were rendered unconscious with CO2 and their brains were immediately removed. The cerebella were discarded and the whole brains (minus striatum) were placed in ice-cold 0.32 M sucrose (10 mL per brain) and gently homogenized by hand. The homogenate of each brain was centrifuged at 1,000× g at 4° C. for 10 mins and the resulting supernatant was diluted with ice-cold 0.32 M sucrose to a total volume of 10 mL to provide the synaptosome solution. Synaptosomes were then preloaded with 5 nM [^3H] 5-HT in the presence of selective uptake inhibitors of DAT (50 nM GBR12935), NET (100 nM nomifensine), and VMAT2 (1 μM reserpine) in Krebs phosphate buffer (KPB). The incubations were allowed to reach equilibrium for 2 h at 25° C. For the release reactions, 425 μL of preloaded synaptosomes were added to test tubes containing 75 μL of test drugs diluted in KPB containing 1 mg/mL BSA. After 10 mins, the release reaction was stopped using a cell harvester by rapid vacuum filtration over GF/B filter paper presoaked in wash buffer (10 mM Tris-HCl, pH 7.4, 150 mM NaCl) and the filters were washed with additional wash buffer. Filters were dried for 1 h at 60° C. and retained radioactivity was quantified using a MicroBeta 2 liquid scintillation counter. The amount of retained radioactivity was inversely proportional to the extent of release.

CYP2D6 = CYP2D6 (Homo sapiens (Human), UniProt P10635); assay: CYP inhibition in human liver microsomes, CYP2D6; format: in vitro ADME; conditions: for inhibition at 10 min, 10 µM: both sexes, human, pooled human liver microsomes, pH 7.4, probe dextromethorphan (5 μM), HLM, dextromethorphan substrate, read-out: CYP 2D6 % Inhibition at 10 μM
CYP2D6, sequence (P10635 whole entry, looked up): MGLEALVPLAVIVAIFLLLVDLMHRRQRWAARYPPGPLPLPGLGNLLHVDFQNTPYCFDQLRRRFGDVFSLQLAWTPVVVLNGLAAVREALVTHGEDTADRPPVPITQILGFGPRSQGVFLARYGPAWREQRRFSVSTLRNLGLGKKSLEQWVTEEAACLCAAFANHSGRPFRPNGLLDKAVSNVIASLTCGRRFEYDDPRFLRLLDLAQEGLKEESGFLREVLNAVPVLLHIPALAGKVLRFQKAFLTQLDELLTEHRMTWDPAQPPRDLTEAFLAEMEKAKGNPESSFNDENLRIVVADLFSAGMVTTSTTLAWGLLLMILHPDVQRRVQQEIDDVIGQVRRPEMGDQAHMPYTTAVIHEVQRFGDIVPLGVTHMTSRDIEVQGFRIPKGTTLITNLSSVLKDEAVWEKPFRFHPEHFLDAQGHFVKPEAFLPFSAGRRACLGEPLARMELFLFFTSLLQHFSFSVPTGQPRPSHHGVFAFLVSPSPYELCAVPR

CYP3A4, sequence (P08684 whole entry, looked up): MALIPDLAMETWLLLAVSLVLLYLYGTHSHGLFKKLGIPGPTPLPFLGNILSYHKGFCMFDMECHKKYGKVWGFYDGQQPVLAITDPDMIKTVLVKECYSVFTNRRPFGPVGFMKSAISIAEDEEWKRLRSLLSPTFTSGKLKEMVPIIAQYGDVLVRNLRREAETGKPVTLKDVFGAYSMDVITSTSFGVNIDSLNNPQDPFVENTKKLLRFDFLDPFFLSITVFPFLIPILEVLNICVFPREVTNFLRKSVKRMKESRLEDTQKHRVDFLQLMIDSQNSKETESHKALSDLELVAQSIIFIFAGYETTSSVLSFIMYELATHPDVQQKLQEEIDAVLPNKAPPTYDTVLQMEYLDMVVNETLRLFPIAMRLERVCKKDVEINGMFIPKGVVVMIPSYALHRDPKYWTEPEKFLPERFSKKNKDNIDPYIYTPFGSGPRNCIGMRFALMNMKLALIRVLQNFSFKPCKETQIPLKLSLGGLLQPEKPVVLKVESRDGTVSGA

| Structure (SMILES) | IC50 (CYP3A4) | Cmax ([1]; 1 mg/kg) | Tmax ([1]; 1 mg/kg) | half-life ([1]; 1 mg/kg) | Cmax ([1]; 10 mg/kg) | Tmax ([1]; 10 mg/kg) | half-life ([1]; 10 mg/kg) | AUC0-last ([1]; 1 mg/kg) | AUC0-last ([1]; 10 mg/kg) | Average HTR (C57BL/6 mice; 0.1 mg/kg SC) | Average HTR (C57BL/6 mice; 1 mg/kg SC) | Average HTR (C57BL/6 mice; 10 mg/kg SC) | total number of HTR counts vs. vehicle (FIG. 2) (C57BL/6 mice; Cmp 4 alone, Dunnett's test, P<0.0001) | maximal effect in HTR (C57BL/6 mice) | % Release @ Max Dose (10 μM) (rat synaptosomes) | EC50 (rat synaptosomes) | IC50 (CYP2D6) | inhibition at 10 min, 10 µM (CYP3A4) | Average HTR (C57BL/6 mice; 100 mg/kg SC) | inhibition at 10 min, 10 µM (CYP2D6) |
| --- | --- | --- | --- | --- | --- | --- | --- | --- | --- | --- | --- | --- | --- | --- | --- | --- | --- | --- | --- | --- |
| CCN(C)CCc1c[nH]c2ccc(F)cc12 [Compound 4, N-ethyl-2-(5-fluoro-1H-indol-3-yl)-N-methylethan-1-amine hydrochloride] | > 50 µM | 188 ng/g | 15 min | 23.4 min | 2480 ng/g | 60 min | 31.2 min | 197.70 ng·h/g | 4,710.96 h*ng/g | 5.00 | 18.333 | 9.333 | significantly different from vehicle | 27.67 head twitches/20 min | 71.36% | 0.00843 µM | > 50 µM | – | – | – |
| CCN(C)CCc1c[nH]c2ccccc12 [Compound 2, methylethyltryptamine] | > 50 µM | – | – | – | – | – | – | – | – | – | 3.667 | 2.500 | – | 6.00 head twitches/20 min | 71% | 0.183 µM | 31.5 µM | 0% | 0.500 | 11.5% |
| CN(C)CCc1c[nH]c2ccc(F)cc12 [Compound 5, 2-(5-fluoro-1H-indol-3-yl)-N,N-dimethylethan-1-amine hydrochloride] | – | – | – | – | 275 ng/g | 15 min | 23.4 min | – | 93.99 ng·h/g | – | – | – | – | – | – | – | – | – | – | – |
| CN(C)CCc1c[nH]c2ccccc12 [DMT, N,N-dimethyltryptamine, reference compound] | – | – | – | – | – | – | – | – | – | – | – | – | – | – | 80.77% | 0.0808 µM | – | – | – | – |
| CCN(C)CCc1c[nH]c2cccc(O)c12 [Compound 6] | > 50 µM | – | – | – | 6160 ng/g | 120 min | 125 min | – | 30,638.13 h*ng/g | – | – | – | – | – | – | – | 48.5 µM | – | – | – |
| CCCN(CC)CCc1c[nH]c2ccccc12 [Compound 1, ethylpropyltryptamine] | – | – | – | – | – | – | – | – | – | – | 14.667 | 8.000 | – | 14.7 head twitches/20 min | – | – | – | 2% | 4.500 | 58.6% |
| CCCN(CC)CCc1c[nH]c2ccc(F)cc12 [Compound 3, N-ethyl-N-(2-(5-fluoro-1H-indol-3-yl)ethyl) propan-1-amine hydrochloride] | > 50 µM | – | – | – | – | – | – | – | – | 12.5 | 29.333 | 26.333 | – | 29.33 head twitches/20 min | – | – | 1.9 µM | – | – | – |
